Measured values from US9144238B2, “Active compound combinations” (BAYER INTELLECTUAL PROPERTY GMBH, priority 2011, dated 2015).
Values joined by “and” are separate entries in the source; they are usually repeats but may differ in a detail not shown here. Equal entries are not always repeated.

Experiments:
[1] = test system: Phytophthora infestans; test: whole plant or invertebrate; format: in vivo; conditions: tomatoes; for pest or weed control at 1 ppm / pest or weed control at 2 ppm: read-out: Efficacy in % found, Table 4; for pest or weed control at 2 ppm: 2 ppm a.i.; for pest or weed control at 10 ppm: read-out: Efficacy in % found, Table 1
[2] = physchem
Method: Measurement of log P values was performed according EEC directive 79/831 Annex V.A8 by HPLC (High Performance Liquid
Chromatography) on reversed phase columns with the following methods:
^[a]Measurement was done at pH 2.3 with 0.1% phosphoric acid and acetonitrile as eluent.

[3] = test system: Venturia inaequalis; test: Venturia test (apples)/preventive; format: in vivo; conditions: for pest or weed control at 4 ppm: Table 10, 4 ppm a.i.
Method: (§1) To produce a suitable preparation of active compound, 1 part by weight of active compound is mixed with the stated amounts of solvent and emulsifier, and the concentrate is diluted with water to the desired concentration.
To test for preventive activity, young plants are sprayed with the preparation of active compound at the stated rate of application. After the spray coating has dried on, the plants are inoculated with an aqueous conidia suspension of the causal agent of apple scab (Venturia inaequalis) and then remain for 1 day in an incubation cabinet at approximately 20° C. and a relative atmospheric humidity of 100%.
The plants are then placed in a greenhouse at approximately 21° C. and a relative atmospheric humidity of approximately 90%.
(§2) The test is evaluated 10 days after the inoculation. 0% means an efficacy which corresponds to that of the untreated control, while an efficacy of 100% means that no disease is observed.

[4] = test system: Alternaria solani; test: whole plant or invertebrate; format: in vivo; conditions: for Efficacy in % found: in vivo
[5] = test system: Botrytis cinerea; test: Botrytis test (beans)/preventive; format: in vivo; conditions: Table 12, 5 ppm a.i.
Method: as §1
To test for preventive activity, young plants are sprayed with the preparation of active compound. After the spray coating has dried on, 2 small pieces of agar covered with growth of Botrytis cinerea are placed on each leaf. The inoculated plants are placed in a darkened chamber at 20° C. and a relative atmospheric humidity of 100%.
2 days after the inoculation, the size of the lesions on the leaves is evaluated. 0% means an efficacy which corresponds to that of the untreated control, while an efficacy of 100% means that no disease is observed.
as §2

[6] = Venturia inaequalis, 240 h, read-out: Efficacy in % found
[7] = Alternaria solani, 72 h, read-out: Efficacy in % found
[8] = Phytophthora infestans, 72 h, 1 ppm a.i.
[9] = Phytophthora infestans, 72 h, 10 ppm a.i.

## C[C@@]1(c2ccc(Oc3ccccc3)cc2)OC(=O)N(Nc2ccccc2)C1=O (racemic) [3.9, famoxadone]
[1]; Phytophthora infestans, 72 h, read-out: Efficacy in % found, Table 5, 2.5 ppm a.i.
  pest or weed control at 2.5 ppm: 30%

## O=C(Cn1nc(C(F)F)cc1C(F)F)N1CCC(c2nc(C3=NOC(c4c(F)ccc(O)c4F)C3)cs2)CC1 (centres unmarked) [2-[3,5-bis(difluoromethyl)-1H-pyrazol-1-yl]-1-(4-{4-[5-(2,6-difluoro-3-hydroxyphenyl)-4,5-dihydro-1,2-oxazol-3-yl]-1,3-thiazol-2-yl}piperidin-1-yl)ethanone]
[2]; pH 2.7
  chromatographic logP: 2.61

## O=C(Cn1nc(C(F)F)cc1C(F)F)N1CCC(c2nc(C3=NOC(c4c(F)cc(O)cc4F)C3)cs2)CC1 (centres unmarked) [2-[3,5-bis(difluoromethyl)-1H-pyrazol-1-yl]-1-(4-{4-[5-(2,6-difluoro-4-hydroxyphenyl)-4,5-dihydro-1,2-oxazol-3-yl]-1,3-thiazol-2-yl}piperidin-1-yl)ethanone]
[2]; pH 2.7
  chromatographic logP: 2.58

## Cn1cc(C(=O)Nc2ccc(F)cc2-c2ccc(Cl)c(Cl)c2)c(C(F)F)n1 [2.1, bixafen]
[3]; Table 10, 0.5 ppm a.i.
  Efficacy in % found: 26%
[4]
  Efficacy in % found: 60%

## O=C(NCCc1ncc(C(F)(F)F)cc1Cl)c1ccccc1C(F)(F)F [2.6, fluopyram]
[3]; [6]
  pest or weed control at 4 ppm: 33%

## Cn1cc(C(=O)Nc2ccccc2-c2cc(F)c(F)c(F)c2)c(C(F)F)n1 [2.8, fluxapyroxad]
[3]; Table 10, 0.5 ppm a.i.
  Efficacy in % found: 54%
[4]
  Efficacy in % found: 63%

## CC(C)C1C2CCC1c1c(NC(=O)c3cn(C)nc3C(F)F)cccc12 (centres unmarked) [2.12, isopyrazam]
[3]; Table 10, 0.5 ppm a.i.
  Efficacy in % found: 76%
[4]
  Efficacy in % found: 60%

## COC(c1ccc(Cl)cc1Cl)C(C)NC(=O)c1cn(C)nc1C(F)F (centres unmarked) [2.27, N-[1-(2,4-dichlorophenyl)-1-methoxypropan-2-yl]-3-(difluoromethyl)-1-methyl-1H-pyrazole-4-carboxamide]
[3]; [6]
  pest or weed control at 4 ppm: 87%

## Cn1cc(C(=O)Nc2cccc3c2C2CCC3C2=C(Cl)Cl)c(C(F)F)n1 (centres unmarked) [2.29, N-[9-(dichloromethylene)-1,2,3,4-tetrahydro-1,4-methanonaphthalen-5-yl]-3-(difluoromethyl)-1-methyl-1H-pyrazole-4-carboxamide]
[4]; [7]
  pest or weed control at 0.25 ppm: 40%

## CCCCCCCCc1c(CC)nc2ncnn2c1N [3.1, ametoctradin]
[1]; Table 1, 10 ppm a.i.
  Efficacy in % found: 0%
[1]; Table 5, 2.5 ppm a.i.
  Efficacy in % found: 52%

## CO/C=C(/C(=O)OC)c1ccccc1Oc1cc(Oc2ccccc2C#N)ncn1 [3.3, azoxystrobin]
[4]
  Efficacy in % found: 9%
[1]; Table 4, 1 ppm a.i.
  Efficacy in % found: 0%

## Cc1ccc(-c2c(Cl)nc(C#N)n2S(=O)(=O)N(C)C)cc1 [3.4, cyazofamid]
[1]; Phytophthora infestans, 72 h, read-out: Efficacy in % found, Table 5, 0.1 ppm a.i.
  pest or weed control at 0.1 ppm: 0%

## CSC1=N[C@@](C)(c2ccccc2)C(=O)N1Nc1ccccc1 [3.10, fenamidone]
[1]; Phytophthora infestans, 72 h, read-out: Efficacy in % found, Table 2, 0.25 ppm a.i.
  pest or weed control at 0.25 ppm: 6%

## CO/N=C(/C1=NOCCO1)c1ccccc1Oc1ncnc(Oc2ccccc2Cl)c1F [3.12, fluoxastrobin]
[4]; [7]
  pest or weed control at 0.5 ppm: 18%
[1]; [8]
  pest or weed control at 1 ppm: 0%
[1]; Phytophthora infestans, 72 h
  pest or weed control at 2 ppm: 0%

## COC(=O)N(OC)c1ccccc1COc1ccn(-c2ccc(Cl)cc2)n1 [3.17, pyraclostrobin]
[4]; [7]
  pest or weed control at 0.25 ppm: 18%
[1]; [8]
  pest or weed control at 1 ppm: 0%
[1]; Phytophthora infestans, 72 h
  pest or weed control at 2 ppm: 0%

## CON=C(C(=O)OC)c1ccccc1CON=C(C)c1cccc(C(F)(F)F)c1 [3.22, trifloxystrobin]
[3]; Venturia inaequalis, 240 h, Table 11, 0.25 ppm a.i., read-out: Efficacy in % found
  pest or weed control at 0.25 ppm: 0%
[4]; [7]
  pest or weed control at 0.25 ppm: 18%
[1]; [8]
  pest or weed control at 1 ppm: 0%
[1]; Phytophthora infestans, 72 h
  pest or weed control at 2 ppm: 0%

## Oc1cc(F)c(C2CC(c3csc(C4CCNCC4)n3)=NO2)c(F)c1 (centres unmarked) [4-{4-[5-(2,6-difluoro-4-hydroxyphenyl)-4,5-dihydro-1,2-oxazol-3-yl]-1,3-thiazol-2-yl}piperidinium chloride]
[2]; pH 2.7
  chromatographic logP: 0.98

## O=C(NCc1ncc(C(F)(F)F)cc1Cl)c1c(Cl)cccc1Cl [4.6, fluopicolide]
[1]; Table 5, 0.5 ppm a.i.
  Efficacy in % found: 12%

## N#Cc1c(Cl)c(Cl)c(Cl)c(C#N)c1Cl [5.4, chlorothalonil]
[5]
  Efficacy in % found: 8%

## [Cu+2].[OH-].[OH-] [5.5, copper hydroxide]
[4]
  Efficacy in % found: 16%

## [Cl-].[Cu+2].[Cu+2].[OH-].[OH-].[OH-] [5.8, copper oxychloride]
[3]; Table 11, 50 ppm a.i.
  Efficacy in % found: 54%
[4]
  Efficacy in % found: 7%
[1]; Table 2, 5 ppm a.i.
  Efficacy in % found: 12%
[1]; Table 2, 10 ppm a.i.
  Efficacy in % found: 10%

## C#CCOc1ccc(CCNC(=O)C(OCC#C)c2ccc(Cl)cc2)cc1OC (centres unmarked) [9.5, mandipropamid]
[1]; Table 1, 0.2 ppm a.i.
  Efficacy in % found: 0%

## O=[N+]([O-])c1cc(C(F)(F)F)c(Cl)c([N+](=O)[O-])c1Nc1ncc(C(F)(F)F)cc1Cl [14.4, fluazinam]
[1]; [9]
  pest or weed control at 10 ppm: 0%

## CCNC(=O)NC(=O)/C(C#N)=N/OC [15.9, cymoxanil]
[1]; [9]
  pest or weed control at 10 ppm: 0%

## OP(O)O [15.41, phosphorous acid]
[1]; Table 1, 10 ppm a.i.
  Efficacy in % found: 0%

## Cn1c(=O)c2sc3c(=O)n(C)c(=O)c3sc2c1=O [15.60, 2,6-dimethyl-1H,5H-[1,4]dithiino[2,3-c:5,6-c′]dipyrrole-1,3,5,7(2H,6H)-tetrone]
[3]; Venturia inaequalis, 240 h, Table 11, 25 ppm a.i., read-out: Efficacy in % found
  pest or weed control at 25 ppm: 54%
[4]; [7]
  pest or weed control at 25 ppm: 29%
[1]; Phytophthora infestans, 72 h, read-out: Efficacy in % found, Table 2, 5 ppm a.i.
  pest or weed control at 5 ppm: 49%

## C#CCOc1cccc(C2CC(c3csc(C4CCN(C(=O)Cn5nc(C(F)F)cc5C(F)F)CC4)n3)=NO2)c1 (centres unmarked) [(I-3), 2-[3,5-bis(difluoromethyl)-1H-pyrazol-1-yl]-1-[4-(4-{5-[3-(prop-2-yn-1-yloxy)phenyl]-4,5-dihydro-1,2-oxazol-3-yl}-1,3-thiazol-2-yl)piperidin-1-yl]ethanone]
[2]; pH 2.7
  chromatographic logP: 3.16
[2]; pH 7.8
  chromatographic logP: 3.24

## C#CCOc1cc(F)c(C2CC(c3csc(C4CCN(C(=O)Cn5nc(C(F)F)cc5C(F)F)CC4)n3)=NO2)c(F)c1 (centres unmarked) [(I-4), 2-[3,5-bis(difluoromethyl)-1H-pyrazol-1-yl]-1-[4-(4-{5-[2,6-difluoro-4-(prop-2-yn-1-yloxy)phenyl]-4,5-dihydro-1,2-oxazol-3-yl}-1,3-thiazol-2-yl)piperidin-1-yl]ethanone]
[2]; pH 2.7
  chromatographic logP: 3.3

## C#CCOc1ccc(F)c(C2CC(c3csc(C4CCN(C(=O)Cn5nc(C(F)F)cc5C(F)F)CC4)n3)=NO2)c1F (centres unmarked) [(I-7), 2-[3,5-bis(difluoromethyl)-1H-pyrazol-1-yl]-1-[4-(4-{5-[2,6-difluoro-3-(prop-2-yn-1-yloxy)phenyl]-4,5-dihydro-1,2-oxazol-3-yl}-1,3-thiazol-2-yl)piperidin-1-yl]ethanone]
[2]; pH 2.7
  chromatographic logP: 3.17

## C#CCOc1ccc(F)cc1C1CC(c2csc(C3CCN(C(=O)Cn4nc(C(F)F)cc4C(F)F)CC3)n2)=NO1 (centres unmarked) [(I-8), 2-[3,5-bis(difluoromethyl)-1H-pyrazol-1-yl]-1-[4-(4-{5-[5-fluoro-2-(prop-2-yn-1-yloxy)phenyl]-4,5-dihydro-1,2-oxazol-3-yl}-1,3-thiazol-2-yl)piperidin-1-yl]ethanone]
[2]; pH 2.7
  chromatographic logP: 3.37
[2]; pH 7.8
  chromatographic logP: 3.44

## C#CCOc1cc(OC)ccc1C1CC(c2csc(C3CCN(C(=O)Cn4nc(C(F)F)cc4C(F)F)CC3)n2)=NO1 (centres unmarked) [(I-9), 2-[3,5-bis(difluoromethyl)-1H-pyrazol-1-yl]-1-[4-(4-{5-[4-methoxy-2-(prop-2-yn-1-yloxy)phenyl]-4,5-dihydro-1,2-oxazol-3-yl}-1,3-thiazol-2-yl)piperidin-1-yl]ethanone]
[2]; pH 2.7
  chromatographic logP: 3.25
[2]; pH 7.8
  chromatographic logP: 3.2

## C#CCOc1c(F)cccc1C1CC(c2csc(C3CCN(C(=O)Cn4nc(C(F)F)cc4C(F)F)CC3)n2)=NO1 (centres unmarked) [(I-10), 2-[3,5-bis(difluoromethyl)-1H-pyrazol-1-yl]-1-[4-(4-{5-[3-fluoro-2-(prop-2-yn-1-yloxy)phenyl]-4,5-dihydro-1,2-oxazol-3-yl}-1,3-thiazol-2-yl)piperidin-1-yl]ethanone]
[2]; pH 2.7
  chromatographic logP: 3.37
[2]; pH 7.8
  chromatographic logP: 3.48

## CC(C)(C)OC(=O)N1CCC(c2nc(C3=NOC(c4c(F)cc(O)cc4F)C3)cs2)CC1 (centres unmarked) [tert-butyl 4-{4-[5-(2,6-difluoro-4-hydroxyphenyl)-4,5-dihydro-1,2-oxazol-3-yl]-1,3-thiazol-2-yl}piperidine-1-carboxylate]
[2]; pH 2.7
  chromatographic logP: 3.24

## fosetyl-aluminium [15.24]
[1]; Table 1, 10 ppm a.i.
  Efficacy in % found: 0%

## metiram [5.25]
[4]
  Efficacy in % found: 36%
[1]; Table 2, 5 ppm a.i.
  Efficacy in % found: 12%
[1]; Table 2, 10 ppm a.i.
  Efficacy in % found: 24%

## propamocarb hydrochloride [10.10]
[1]; Table 2, 5 ppm a.i.
  Efficacy in % found: 7%
[1]; Table 4, 10 ppm a.i.
  Efficacy in % found: 18%

## propineb [5.29]
[4]
  Efficacy in % found: 2% and 0%
[1]; Table 3, 10 ppm a.i.
  Efficacy in % found: 24%
